From PubChem BioAssay AID330 (DTP/NCI, 2004)
“And” between values parts separate entries of the source, which are not always exact repeats. Identical values can stand only once. Inconclusive results and toxic doses are left out. How the source made its calls: active means survival T/C of 150% or more; inactive means T/C below 125% in these data. Peptide text beside a SMILES is read from it. * marks the point of attachment. Boc = CC(C)(C)OC(=O)*; NHNH2 = NN*

Tested on: P388 leukemia ip, CD2F1 mice, survival T/C
Assay: NCI In Vivo Anticancer Drug Screen. Data for tumor model P388 Leukemia (intraperitoneal) in CD2F1 (CDF1) mice
Conditions: endpoint: median survival time, higher = longer survival
Procedure, shortened: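 Mice carrying the transplanted tumor received test compound or vehicle. Survival was recorded in each group, and the value is the treated-group measurement divided by that of the vehicle-treated control group.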

[1] = dose: 60.0 mg/kg/injection, schedule: Q01DX005 (ip), vehicle: saline
[2] = dose: 120.0 mg/kg/injection, schedule: Q01DX005 (ip), vehicle: saline
[3] = dose: 240.0 mg/kg/injection, schedule: Q01DX005 (ip), vehicle: saline
[4] = dose: 50.0 mg/kg/injection, schedule: Q01DX005 (ip), vehicle: saline with Tween-80
[5] = dose: 100.0 mg/kg/injection, schedule: Q01DX005 (ip), vehicle: saline with Tween-80
[6] = dose: 200.0 mg/kg/injection, schedule: Q01DX005 (ip), vehicle: saline with Tween-80
[7] = dose: 50.0 mg/kg/injection, schedule: Q01DX005 (ip), vehicle: Klucel (hydroxypropylcellulose) (HPC)
[8] = dose: 100.0 mg/kg/injection, schedule: Q01DX005 (ip), vehicle: Klucel (hydroxypropylcellulose) (HPC)
[9] = dose: 200.0 mg/kg/injection, schedule: Q01DX005 (ip), vehicle: Klucel (hydroxypropylcellulose) (HPC)
[10] = dose: 50.0 mg/kg/injection, schedule: Q01DX009 (ip), vehicle: saline with Tween-80
[11] = dose: 100.0 mg/kg/injection, schedule: Q01DX009 (ip), vehicle: saline with Tween-80
[12] = dose: 200.0 mg/kg/injection, schedule: Q01DX009 (ip), vehicle: saline with Tween-80
[13] = dose: 60.0 mg/kg/injection, schedule: Q01DX005 (ip), vehicle: saline with Tween-80
[14] = dose: 120.0 mg/kg/injection, schedule: Q01DX005 (ip), vehicle: saline with Tween-80
[15] = dose: 240.0 mg/kg/injection, schedule: Q01DX005 (ip), vehicle: saline with Tween-80
[16] = dose: 50.0 mg/kg/injection, schedule: Q01DX009 (ip), vehicle: saline
[17] = dose: 100.0 mg/kg/injection, schedule: Q01DX009 (ip), vehicle: saline
[18] = dose: 50.0 mg/kg/injection, schedule: Q01DX009 (ip), vehicle: Klucel (hydroxypropylcellulose) (HPC)

Measured: T/C

C[Si](C)(CNCCN)O[Si](C)(C)CNCCN
inactive: [1] 99 % of control | [2] 90 % of control | [3] 101 % of control

CCOc1c(N=Nc2ccc(Cl)cc2)c(-c2ccccc2)nn1C(=S)S
inactive: [4] 97 % of control | [5] 99 % of control | [6] 91 % of control

CC(C)(C)OC(=O)C1CCON1C1OC(C(O)CO)C2OC(C)(C)OC21 (stereo not given)
inactive: [7] 100 % of control | [8] 100 % of control and 98 % of control | [9] 95 % of control and 104 % of control

N#C/C=C1\NC(=O)CS1
inactive: [10] 95 % of control | [11] 100 % of control | [12] 95 % of control

CC(=O)Nc1ccc2c(C)cc(Cl)nc2c1
inactive: [13] 95 % of control | [14] 90 % of control | [15] 89 % of control

Cc1ccc(N(O)C(=O)c2ccccc2)c(C)c1
inactive: [4] 102 % of control and 98 % of control | [5] 92 % of control and 93 % of control | [6] 123 % of control and 98 % of control | dose: 400.0 mg/kg/injection, schedule: Q01DX005 (ip), vehicle: saline with Tween-80 111 % of control

Cc1ccc(CCn2c3c(c4cc(Cl)ccc42)CN(C)CC3)cn1
inactive: [16] 99 % of control | [17] 102 % of control

COc1cccc(/C=C2/SC(=S)N(Cc3ccco3)C2=O)c1OC
inactive: dose: 12.5 mg/kg/injection, schedule: Q01DX005 (ip), vehicle: saline with Tween-80 100 % of control | dose: 25.0 mg/kg/injection, schedule: Q01DX005 (ip), vehicle: saline with Tween-80 90 % of control | [4] 90 % of control and 91 % of control

CC(=O)c1c(-c2ccc(F)cc2)c(-c2ccc(F)cc2)n[nH]c1=O
inactive: [4] 100 % of control | [5] 100 % of control | [6] 97 % of control

CC1=NC(C#N)=C(C#N)N=C(C)C1
inactive: dose: 12.5 mg/kg/injection, schedule: Q01DX009 (ip), vehicle: Klucel (hydroxypropylcellulose) (HPC) 93 % of control | dose: 25.0 mg/kg/injection, schedule: Q01DX009 (ip), vehicle: Klucel (hydroxypropylcellulose) (HPC) 94 % of control | [18] 93 % of control

CSC(=S)N/N=C/c1ccc[nH]1
inactive: [16] 100 % of control | [17] 94 % of control

CCc1cccc2c(NCCCCNc3c4ccccc4nc4c(CC)cccc34)c3ccccc3nc12
inactive: dose: 0.62 mg/kg/injection, schedule: Q## X009 (ip), vehicle: lactic acid 93 % of control | dose: 1.25 mg/kg/injection, schedule: Q## X009 (ip), vehicle: lactic acid 100 % of control | dose: 2.5 mg/kg/injection, schedule: Q## X009 (ip), vehicle: lactic acid 99 % of control | dose: 5.0 mg/kg/injection, schedule: Q## X009 (ip), vehicle: lactic acid 91 % of control

COC(=O)Nc1ccc2c(c1)Cc1cc(NC(=O)OC)ccc1-2
inactive: [4] 94 % of control | [5] 92 % of control | [6] 90 % of control

CC(=O)C1C(=O)C(=O)N(c2cc(C)ccc2O)C1=O (stereo not given)
inactive: [18] 106 % of control | dose: 100.0 mg/kg/injection, schedule: Q01DX009 (ip), vehicle: Klucel (hydroxypropylcellulose) (HPC) 107 % of control | dose: 200.0 mg/kg/injection, schedule: Q01DX009 (ip), vehicle: Klucel (hydroxypropylcellulose) (HPC) 104 % of control

Cc1csc2nc(-c3ccccc3)c(/C=N/NC(=O)CN(C)C)n12
inactive: [13] 110 % of control | [14] 103 % of control | [15] 99 % of control

O=C1C(N=Nc2ccc(Br)cc2)Sc2nc3ccccc3n21 (stereo not given)
inactive: dose: 60.0 mg/kg/injection, schedule: Q01DX005 (ip), vehicle: Klucel (hydroxypropylcellulose) (HPC) 89 % of control | dose: 120.0 mg/kg/injection, schedule: Q01DX005 (ip), vehicle: Klucel (hydroxypropylcellulose) (HPC) 89 % of control

c1ccc(-c2ncc3n(-c4ccccc4)cnn23)cc1
inactive: dose: 100.0 mg/kg/injection, schedule: Q04DX002 (ip), vehicle: saline with Tween-80 95 % of control | dose: 200.0 mg/kg/injection, schedule: Q04DX002 (ip), vehicle: saline with Tween-80 86 % of control | dose: 400.0 mg/kg/injection, schedule: Q04DX002 (ip), vehicle: saline with Tween-80 89 % of control

O=C(O)CC(O)(CC(=O)O)C(=O)O
inactive: dose: 0.12 % in 0.5 ml injection vol, schedule: Q01DX009 (ip), vehicle: water 100 % of control | dose: 0.25 % in 0.5 ml injection vol, schedule: Q01DX009 (ip), vehicle: water 99 % of control and 94 % of control | dose: 0.5 % in 0.5 ml injection vol, schedule: Q01DX009 (ip), vehicle: water 88 % of control and 90 % of control and 94 % of control

COC(=O)CCSCc1ccccc1
inactive: [1] 100 % of control | [2] 100 % of control | [3] 109 % of control

NC(CSSCC(NC(=O)c1ccccc1)C(=O)O)C(=O)O (stereo not given)
inactive: [7] 103 % of control and 99 % of control | [8] 106 % of control and 96 % of control | [9] 100 % of control and 101 % of control and 111 % of control

COCC1(C)CCCC2(C)C3=CC(=O)CCC3CCC12 (stereo not given)
inactive: dose: 100.0 mg/kg/injection, schedule: Q04DX003 (ip), vehicle: saline with Tween-80 100 % of control | dose: 200.0 mg/kg/injection, schedule: Q04DX003 (ip), vehicle: saline with Tween-80 108 % of control | dose: 400.0 mg/kg/injection, schedule: Q04DX003 (ip), vehicle: saline with Tween-80 95 % of control

Clc1ccc(N2CCOCC2)nn1
inactive: [16] 104 % of control | [17] 88 % of control | dose: 200.0 mg/kg/injection, schedule: Q01DX009 (ip), vehicle: saline 100 % of control

CN1C2CCC(=O)C1CC2 (stereo not given)
inactive: dose: 6.25 mg/kg/injection, schedule: Q01DX005 (ip), vehicle: saline + Tween-80 + alcohol 100 % of control | dose: 12.5 mg/kg/injection, schedule: Q01DX005 (ip), vehicle: saline + Tween-80 + alcohol 100 % of control | dose: 25.0 mg/kg/injection, schedule: Q01DX005 (ip), vehicle: saline + Tween-80 + alcohol 99 % of control

O=C(/N=C1\N=Nc2nc(C(C(=O)c3ccc(F)cc3)c3nc4n(c3O)/C(=N/C(=O)Nc3ccc(Cl)cc3)N=N4)c(O)n21)Nc1ccc(Cl)cc1 (stereo not given)
inactive: [13] 91 % of control | [14] 91 % of control | [15] 88 % of control

Cc1c(Cl)cccc1NC(=O)c1cccc([N+](=O)[O-])c1O
inactive: [10] 102 % of control | [11] 93 % of control

O=C(NC1c2ccccc2Oc2ccccc21)c1ccc([N+](=O)[O-])cc1
inactive: [4] 102 % of control | [5] 93 % of control | [6] 91 % of control

CC(C)(C)OC(=O)NC(Cc1c[nH]c2ccccc12)C(=O)NC(Cc1c[nH]c2ccccc12)C(=O)NN (stereo not drawn) (Boc-Trp-Trp-NHNH2; configuration not given here)
inactive: dose: 12.5 mg/kg/injection, schedule: Q01DX009 (ip), vehicle: other 94 % of control | dose: 25.0 mg/kg/injection, schedule: Q01DX009 (ip), vehicle: other 94 % of control | dose: 50.0 mg/kg/injection, schedule: Q01DX009 (ip), vehicle: other 91 % of control | dose: 100.0 mg/kg/injection, schedule: Q01DX009 (ip), vehicle: other 91 % of control | dose: 200.0 mg/kg/injection, schedule: Q01DX009 (ip), vehicle: other 107 % of control

N#CN(Cc1ccccc1)C(c1ccccc1)(c1ccccc1)c1ccccc1.[I][Sn]([c]1ccccc1)([c]1ccccc1)[c]1ccccc1
inactive: dose: 3.12 mg/kg/injection, schedule: Q01DX005 (ip), vehicle: saline with Tween-80 98 % of control | dose: 6.25 mg/kg/injection, schedule: Q01DX005 (ip), vehicle: saline with Tween-80 92 % of control

O=C1CCC(C(=O)O)N1 (stereo not given)
inactive: dose: 100.0 mg/kg/injection, schedule: Q04DX003 (ip), vehicle: saline 95 % of control | dose: 200.0 mg/kg/injection, schedule: Q04DX003 (ip), vehicle: saline 97 % of control | dose: 400.0 mg/kg/injection, schedule: Q04DX003 (ip), vehicle: saline 94 % of control

CC(/C=C/c1ccccc1)=N\Nc1ccccc1
inactive: [10] 118 % of control | [11] 110 % of control and 112 % of control | dose: 132.0 mg/kg/injection, schedule: Q01DX009 (ip), vehicle: saline with Tween-80 100 % of control | [12] 100 % of control and 110 % of control and 121 % of control | dose: 300.0 mg/kg/injection, schedule: Q01DX009 (ip), vehicle: saline with Tween-80 107 % of control | dose: 400.0 mg/kg/injection, schedule: Q01DX009 (ip), vehicle: saline with Tween-80 106 % of control

Cc1ccc2oc(-c3nnc(N)s3)cc(=O)c2c1
inactive: [4] 100 % of control | [5] 100 % of control | [6] 93 % of control
